Measured values reported in patent US20220119354A1, “DIAMINO-SUBSTITUTED PYRIDINES AND PYRIMIDINES AS HERBICIDES” (FMC Corporation, priority 2019, published 2022).

Columns and labels:
Format in all cases: in vivo
kochia (Kochia scoparia) [1] = assay: Test A preemergence, kochia; details: 0 to 100 scale, 0 is no effect, 100 is complete control
How it was run: (§1)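 Steps: plant seeds in loam/sand; spray soil (pre) or seedlings at 1–2 leaves, 2–10 cm (post) with compound in solvent plus surfactant; keep in greenhouse ~10 d; score injury visually against untreated controls, 0–100.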

[2] = test system: pigweed (Amaranthus retroflexus); assay: Test A preemergence, pigweed; details: 0 to 100 scale, 0 is no effect, 100 is complete control
How it was run: as §1

[3] = test system: galium (catchweed bedstraw, Galium aparine); assay: Test A postemergence, galium; details: 0 to 100 scale, 0 no effect, 100 complete control
How it was run: as §1

[4] = test system: wheat (Triticum aestivum); assay: Test A postemergence, wheat; details: 0 to 100 scale, 0 no effect, 100 complete control
How it was run: as §1

corn (Zea mays) = assay: Test A postemergence, corn; details: 0 to 100 scale, 0 no effect, 100 complete control
How it was run: as §1

[5] = test system: ducksalad (Heteranthera limosa); assay: Test B flooded paddy test, ducksalad; details: Flood, 250 g ai/ha, applied to paddy water, 2-leaf stage, visual evaluation after 13 to 15 d
How it was run: (§2)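 Plants grown to 2-leaf stage. Compounds applied directly into paddy water flooded 3 cm above soil, with that depth kept throughout. After 13–15 d in greenhouse, visual rating versus controls on a 0–100 scale (0 no effect, 100 complete control).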

kochia (Kochia scoparia) [6] = assay: Test A postemergence, kochia; details: 0 to 100 scale, 0 no effect, 100 complete control
How it was run: as §1

[7] = test system: sedge, umbrella (small-flower umbrella sedge, Cyperus difformis); assay: Test B flooded paddy test, umbrella sedge; details: Flood, 250 g ai/ha, applied to paddy water, 2-leaf stage, visual evaluation after 13 to 15 d
How it was run: as §2

[8] = test system: ryegrass, Italian (Lolium multiflorum); assay: Test A preemergence, Italian ryegrass; details: 0 to 100 scale, 0 is no effect, 100 is complete control
How it was run: as §1

[9] = test system: pigweed (Amaranthus retroflexus); assay: Test A postemergence, pigweed; details: 0 to 100 scale, 0 no effect, 100 complete control
How it was run: as §1

rice (Oryza sativa) = assay: Test B flooded paddy test, rice; details: Flood, 250 g ai/ha, applied to paddy water, 2-leaf stage, visual evaluation after 13 to 15 d
How it was run: as §2

[10] = test system: foxtail, giant (Setaria faberii); assay: Test A preemergence, giant foxtail; details: 0 to 100 scale, 0 is no effect, 100 is complete control
How it was run: as §1

[11] = test system: foxtail, giant (Setaria faberii); assay: Test A postemergence, giant foxtail; details: 0 to 100 scale, 0 no effect, 100 complete control
How it was run: as §1

[12] = test system: blackgrass (Alopecurus myosuroides); assay: Test A postemergence, blackgrass; details: 0 to 100 scale, 0 no effect, 100 complete control
How it was run: as §1

[13] = test system: ragweed (common ragweed, Ambrosia elatior); assay: Test A preemergence, ragweed; details: 0 to 100 scale, 0 is no effect, 100 is complete control
How it was run: as §1

[14] = test system: barnyardgrass (Echinochloa crus-galli); assay: Test A postemergence, barnyardgrass; details: 0 to 100 scale, 0 no effect, 100 complete control
How it was run: as §1

[15] = test system: ryegrass, Italian (Lolium multiflorum); assay: Test A postemergence, Italian ryegrass; details: 0 to 100 scale, 0 no effect, 100 complete control
How it was run: as §1

[16] = test system: barnyardgrass (Echinochloa crus-galli); assay: Test B flooded paddy test, barnyardgrass; details: Flood, 250 g ai/ha, applied to paddy water, 2-leaf stage, visual evaluation after 13 to 15 d
How it was run: as §2

[17] = test system: ragweed (common ragweed, Ambrosia elatior); assay: Test A postemergence, ragweed; details: 0 to 100 scale, 0 no effect, 100 complete control
How it was run: as §1

[18] = test system: barnyardgrass (Echinochloa crus-galli); assay: Test A preemergence, barnyardgrass; details: 0 to 100 scale, 0 is no effect, 100 is complete control
How it was run: as §1

SMILES | Kochia plant response rating (kochia (Kochia scoparia) [1]; 125 g ai/ha) | Kochia plant response rating (kochia (Kochia scoparia) [1]; 500 g ai/ha) | Pigweed plant response rating ([2]; 125 g ai/ha) | Pigweed plant response rating ([2]; 500 g ai/ha) | Plant response rating, Galium ([3]; 125 g ai/ha) | Plant response rating, Galium ([3]; 500 g ai/ha) | Plant response rating, Wheat ([4]; 125 g ai/ha) | Plant response rating, Wheat ([4]; 500 g ai/ha) | Plant response rating, Corn (corn (Zea mays); 125 g ai/ha) | Plant response rating, Corn (corn (Zea mays); 500 g ai/ha) | Plant response rating, Ducksalad (0 to 100 scale, 0 is no effect, 100 is complete control) [5] | Plant response rating, Kochia (kochia (Kochia scoparia) [6]; 125 g ai/ha) | Plant response rating, Kochia (kochia (Kochia scoparia) [6]; 500 g ai/ha) | Plant response rating, Sedge, Umbrella (0 to 100 scale, 0 is no effect, 100 is complete control) [7] | Ryegrass, Italian plant response rating ([8]; 125 g ai/ha) | Ryegrass, Italian plant response rating ([8]; 500 g ai/ha) | Plant response rating, Pigweed ([9]; 125 g ai/ha) | Plant response rating, Pigweed ([9]; 500 g ai/ha) | Plant response rating, Rice (0 to 100 scale, 0 is no effect, 100 is complete control) (rice (Oryza sativa)) | Foxtail, Giant plant response rating ([10]; 125 g ai/ha) | also measured
CC(=O)c1cnc(NC(C)c2cc3ccccc3s2)nc1N (stereo not drawn) [Compound 57] | 0 | 60 | 30 | 100 | 60 | 80 | 0 | 20 | 0 | 20 | 30 | 0 | 60 | 80 | 20 | 50 | 60 | 80 | 0 | 30 | Foxtail, Giant plant response rating ([10]; 500 g ai/ha): 90; Plant response rating, Foxtail, Giant ([11]; 125 g ai/ha): 0; Plant response rating, Foxtail, Giant ([11]; 500 g ai/ha): 50; Plant response rating, Blackgrass ([12]; 125 g ai/ha): 0; Plant response rating, Blackgrass ([12]; 500 g ai/ha): 10; Ragweed plant response rating ([13]; 125 g ai/ha): 60; Ragweed plant response rating ([13]; 500 g ai/ha): 100; Plant response rating, Barnyardgrass ([14]; 125 g ai/ha): 0; Plant response rating, Barnyardgrass ([14]; 500 g ai/ha): 70; Plant response rating, Ryegrass, Italian ([15]; 125 g ai/ha): 0; Plant response rating, Ryegrass, Italian ([15]; 500 g ai/ha): 60; Plant response rating, Barnyardgrass (0 to 100 scale, 0 is no effect, 100 is complete control) [16]: 0; Plant response rating, Ragweed ([17]; 125 g ai/ha): 40; Plant response rating, Ragweed ([17]; 500 g ai/ha): 70; Barnyardgrass plant response rating ([18]; 125 g ai/ha): 0; Barnyardgrass plant response rating ([18]; 500 g ai/ha): 70
C[C@@H](Nc1nc(N)c(C(F)(F)F)c(C(F)(F)F)n1)c1cc2ccccc2s1 [Compound 59] | 70 | 80 | 30 | 80 | 20 | 20 | 0 | 0 | 0 | 0 | 0 | 50 | 70 | 0 | 0 | 0 | 60 | 80 | 0 | 0 | Foxtail, Giant plant response rating ([10]; 500 g ai/ha): 30; Plant response rating, Foxtail, Giant ([11]; 125 g ai/ha): 0; Plant response rating, Foxtail, Giant ([11]; 500 g ai/ha): 0; Plant response rating, Blackgrass ([12]; 125 g ai/ha): 0; Plant response rating, Blackgrass ([12]; 500 g ai/ha): 0; Ragweed plant response rating ([13]; 125 g ai/ha): 0; Ragweed plant response rating ([13]; 500 g ai/ha): 30; Plant response rating, Barnyardgrass ([14]; 125 g ai/ha): 0; Plant response rating, Barnyardgrass ([14]; 500 g ai/ha): 0; Plant response rating, Ryegrass, Italian ([15]; 125 g ai/ha): 0; Plant response rating, Ryegrass, Italian ([15]; 500 g ai/ha): 0; Plant response rating, Barnyardgrass (0 to 100 scale, 0 is no effect, 100 is complete control) [16]: 0; Plant response rating, Ragweed ([17]; 125 g ai/ha): 0; Plant response rating, Ragweed ([17]; 500 g ai/ha): 0; Barnyardgrass plant response rating ([18]; 125 g ai/ha): 0; Barnyardgrass plant response rating ([18]; 500 g ai/ha): 0
C[C@H](Nc1nc(N)c(C(F)(F)F)c(C(F)(F)F)n1)c1cc2ccccc2s1 [Compound 60] | 0 | 0 | 0 | 0 | 30 | 40 | 0 | 0 | 0 | 0 | 0 | 30 | 100 | 0 | 0 | 20 | 50 | 90 | 0 | 0 | Foxtail, Giant plant response rating ([10]; 500 g ai/ha): 0; Plant response rating, Foxtail, Giant ([11]; 125 g ai/ha): 20; Plant response rating, Foxtail, Giant ([11]; 500 g ai/ha): 50; Plant response rating, Blackgrass ([12]; 125 g ai/ha): 0; Plant response rating, Blackgrass ([12]; 500 g ai/ha): 20; Ragweed plant response rating ([13]; 125 g ai/ha): 0; Ragweed plant response rating ([13]; 500 g ai/ha): 0; Plant response rating, Barnyardgrass ([14]; 125 g ai/ha): 0; Plant response rating, Barnyardgrass ([14]; 500 g ai/ha): 50; Plant response rating, Ryegrass, Italian ([15]; 125 g ai/ha): 0; Plant response rating, Ryegrass, Italian ([15]; 500 g ai/ha): 0; Plant response rating, Barnyardgrass (0 to 100 scale, 0 is no effect, 100 is complete control) [16]: 0; Plant response rating, Ragweed ([17]; 125 g ai/ha): 20; Plant response rating, Ragweed ([17]; 500 g ai/ha): 60; Barnyardgrass plant response rating ([18]; 125 g ai/ha): 0; Barnyardgrass plant response rating ([18]; 500 g ai/ha): 50
CC[C@@H](Nc1ncc(C(F)(F)F)c(N)n1)c1cc2ccc(F)cc2o1 [Compound 63] | 80 | 100 | 90 | 100 | 50 | 90 | 0 | 0 | 0 | 10 | 75 | 80 | 90 | 80 | 40 | 90 | 100 | 100 | 0 | 60 | Foxtail, Giant plant response rating ([10]; 500 g ai/ha): 100; Plant response rating, Foxtail, Giant ([11]; 125 g ai/ha): 20; Plant response rating, Foxtail, Giant ([11]; 500 g ai/ha): 90; Plant response rating, Blackgrass ([12]; 125 g ai/ha): 0; Plant response rating, Blackgrass ([12]; 500 g ai/ha): 20; Ragweed plant response rating ([13]; 125 g ai/ha): 50; Ragweed plant response rating ([13]; 500 g ai/ha): 100; Plant response rating, Barnyardgrass ([14]; 125 g ai/ha): 30; Plant response rating, Barnyardgrass ([14]; 500 g ai/ha): 60; Plant response rating, Ryegrass, Italian ([15]; 125 g ai/ha): 0; Plant response rating, Ryegrass, Italian ([15]; 500 g ai/ha): 0; Plant response rating, Barnyardgrass (0 to 100 scale, 0 is no effect, 100 is complete control) [16]: 45; Plant response rating, Ragweed ([17]; 125 g ai/ha): 30; Plant response rating, Ragweed ([17]; 500 g ai/ha): 60; Barnyardgrass plant response rating ([18]; 125 g ai/ha): 70; Barnyardgrass plant response rating ([18]; 500 g ai/ha): 100
CC[C@H](Nc1ncc(C(F)(F)F)c(N)n1)c1cc2ccc(F)cc2o1 [Compound 64] | 0 | 0 | 0 | 0 | 0 | 30 | 0 | 0 | 0 | 0 | 0 | 0 | 30 | 0 | 0 | 0 | 20 | 60 | 0 | 0 | Foxtail, Giant plant response rating ([10]; 500 g ai/ha): 0; Plant response rating, Foxtail, Giant ([11]; 125 g ai/ha): 0; Plant response rating, Foxtail, Giant ([11]; 500 g ai/ha): 0; Plant response rating, Blackgrass ([12]; 125 g ai/ha): 0; Plant response rating, Blackgrass ([12]; 500 g ai/ha): 0; Ragweed plant response rating ([13]; 125 g ai/ha): 0; Ragweed plant response rating ([13]; 500 g ai/ha): 0; Plant response rating, Barnyardgrass ([14]; 125 g ai/ha): 0; Plant response rating, Barnyardgrass ([14]; 500 g ai/ha): 20; Plant response rating, Ryegrass, Italian ([15]; 125 g ai/ha): 0; Plant response rating, Ryegrass, Italian ([15]; 500 g ai/ha): 0; Plant response rating, Barnyardgrass (0 to 100 scale, 0 is no effect, 100 is complete control) [16]: 0; Plant response rating, Ragweed ([17]; 125 g ai/ha): 0; Plant response rating, Ragweed ([17]; 500 g ai/ha): 20; Barnyardgrass plant response rating ([18]; 125 g ai/ha): 0; Barnyardgrass plant response rating ([18]; 500 g ai/ha): 0
